Where two headings read alike, the source gives them in different places.
Tests used:
[1] = target: T1, androgen receptor (AR) splicing variant AR-v7 (Homo sapiens, UniProt P10275); assay: Degradation activity on androgen receptor splicing variant AR-v7 in 22RV1 cells (ELISA); type: cell-based; details: AR-v7 degradation in 22RV1 cells, 48 h, class symbols
T1 construct: The degradation activity of compounds on AR-v7 in 22RV1 cells; host or cells: 22RV1 cells
T1 sequence (P10275 1-644 isoform P10275-3): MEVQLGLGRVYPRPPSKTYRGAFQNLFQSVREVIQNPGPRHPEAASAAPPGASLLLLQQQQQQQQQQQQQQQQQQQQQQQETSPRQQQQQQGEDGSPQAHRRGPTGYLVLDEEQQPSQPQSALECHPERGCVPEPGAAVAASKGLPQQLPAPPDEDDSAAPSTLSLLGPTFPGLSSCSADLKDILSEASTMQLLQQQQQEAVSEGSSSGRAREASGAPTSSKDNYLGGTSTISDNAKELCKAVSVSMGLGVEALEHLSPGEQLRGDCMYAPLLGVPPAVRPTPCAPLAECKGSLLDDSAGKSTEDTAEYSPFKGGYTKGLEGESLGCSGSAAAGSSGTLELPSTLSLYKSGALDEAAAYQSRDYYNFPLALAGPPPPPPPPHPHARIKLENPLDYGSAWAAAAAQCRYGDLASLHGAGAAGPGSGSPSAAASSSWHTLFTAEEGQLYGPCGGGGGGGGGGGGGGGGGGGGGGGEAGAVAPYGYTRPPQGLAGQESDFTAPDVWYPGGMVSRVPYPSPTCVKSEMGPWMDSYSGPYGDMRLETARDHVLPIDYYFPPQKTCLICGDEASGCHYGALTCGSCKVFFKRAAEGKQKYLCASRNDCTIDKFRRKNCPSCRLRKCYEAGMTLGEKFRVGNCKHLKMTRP

[2] = tested on: 22RV1 cells; details: Homo sapiens, 22Rv1, 144 h
[3] = read-out: 22RV1 IC50 (nM), 22RV1 cells, 6 days culture, CCK-8, OD 450 nm

| Structure (SMILES) | DC50 [1] [nM] | IC50 [2, 3] [nM] | IC50 ([2]; read-out: 22RV1 IC50 (nM)) [nM] |
| --- | --- | --- | --- |
| CC(C)(c1ccc(OCc2ccnc(N3CC4(COC4)C3)n2)c(F)c1)c1ccc(O[C@H]2C[C@@H](Nc3ccc4c(c3)C(=O)N(C3CCC(=O)NC3=O)C4=O)C2)c(F)c1 (stereo partly drawn) [Example 366, 5-(((1s,3s)-3-(4-(2-(4-((2-(2-oxa-6-azaspiro[3.3]heptane-6-yl)pyrimidin-4-yl)methoxy)-3-fluorophenyl)isopropan-2-yl)-2-fluorophenoxy)cyclobutyl)amino)-2-(2,6-dioxopiperidin-3-yl)isoindolin-1,3-dione] | < 10 | 3 | – |
| CC(C)(c1ccc(OCc2ccnc(OC3COC3)n2)cc1)c1ccc(O[C@H]2C[C@H](Nc3ccc4c(c3)C(=O)N(C3CCC(=O)NC3=O)C4=O)C2)cc1 (stereo partly drawn) [Example 369, 2-(2,6-dioxopiperidin-3-yl)-5-(((1r,3r)-3-(4-(2-(4-((2-(oxetane-3-yloxy)pyrimidin-4-yl)methoxy)phenyl)isopropan-2-yl)phenoxy)cyclobutyl)amino) isoindolin-1,3-dione] | < 10 | 6 | – |
| CC(=O)c1ncc(Oc2ccc(C3(c4ccc(O[C@H]5C[C@H](Nc6ccc7c(c6)C(=O)N(C6CCC(=O)NC6=O)C7=O)C5)cc4)CC3)cc2)cn1 (stereo partly drawn) [Example 378, 5-(((1r,3r)-3-(4-(1-(4-((2-acetylpyrimidin-5-yl)oxy)phenyl)cyclopropyl)phenoxy)cyclobutyl)amino)-2-(2,6-dioxopiperidin-3-yl)isoindolin-1,3-dione] | 11 to 100 | 7 | – |
| Cc1nnc(-c2ncc(Oc3ccc(C4(c5ccc(O[C@H]6C[C@H](Nc7ccc8c(c7)C(=O)N(C7CCC(=O)NC7=O)C8=O)C6)cc5)CC4)cc3)cn2)o1 (stereo partly drawn) [Example 379, 2-(2,6-dioxopiperidin-3-yl)-5-(((1r,3r)-3-(4-(1-(4-((2-(5-methyl-1,3,4-oxadiazol-2-yl)pyrimidin-5-yl)oxy)phenyl)cyclopropyl)phenoxy)cyclobutyl)amino)isoindolin-1,3-dione] | 11 to 100 | 17 | – |
| CCC(CC)(c1ccc(Oc2cnc(-c3noc(C)n3)nc2)cc1)c1ccc(O[C@H]2C[C@H](Nc3ccc4c(c3)C(=O)N(C3CCC(=O)NC3=O)C4=O)C2)cc1 (stereo partly drawn) [Example 380, 2-(2,6-dioxopiperidin-3-yl)-5-(((1r,3r)-3-(4-(3-(4-((2-(5-methyl-1,2,4-oxadiazol-3-yl)pyrimidin-5-yl)oxy)phenyl)pentan-3-yl)phenoxy)cyclobutyl)amino)isoindolin-1,3-dione] | < 10 | 5 | – |
| Cc1nc(-c2ncc(Oc3ccc(C4(c5ccc(O[C@H]6C[C@H](Nc7ccc8c(c7)C(=O)N(C7CCC(=O)NC7=O)C8=O)C6)cc5)CCOCC4)cc3)cn2)no1 (stereo partly drawn) [Example 382, 2-(2,6-dioxopiperidin-3-yl)-5-(((1r,3r)-3-(4-(4-(4-((2-(5-methyl-1,2,4-oxadiazol-3-yl)pyrimidin-5-yl)oxy)phenyl)tetrohydro-2H-pyran-4-yl)phenoxy)cyclobutyl)amino)isoindolin-1,3-dione] | < 10 | < 1 | – |
| CC(C)(c1ccc(OCCCNc2ccc3c(c2)C(=O)N(C2CCC(=O)NC2=O)C3=O)cc1)c1ccc(OCc2ccnc(N3CCC3)n2)cc1 (stereo not drawn) [Example 383] | 11 to 100 | – | 34 |
| CC(C)(c1ccc(OCCCNc2ccc3c(c2)C(=O)N(C2CCC(=O)NC2=O)C3=O)cc1)c1ccc(OCc2ccnc(-n3cncn3)n2)cc1 (stereo not drawn) [Example 389, 5-((3-(4-(2-(4-((2-(1H-1,2,4-triazol-1-yl)pyrimidin-4-yl)methoxy)phenyl)propan-2-yl)phenoxy)propyl)amino)-2-(2,6-dioxopiperidin-3-yl)isoindol-1,3-dione] | 11 to 100 | 54 | – |
| CNc1nccc(COc2ccc(C(C)(C)c3ccc(OCCCNc4ccc5c(c4)C(=O)N(C4CCC(=O)NC4=O)C5=O)cc3)cc2)n1 (stereo not drawn) [Example 390] | 11 to 100 | 26 | – |
